The values below come from the supplement of paper PMC11208160.

This series is described as follows: recombinant barcode read abundance after kanamycin selection (control-corrected) (log10(CPM+1)); higher = more efficient recombination; sequences stand for … in AGTGCAGAGAAAATCGGCCAGTTTTCTCTGCCTGCAGTCCGCATGCCGT…ATTTATGCAGCGGACTGCCTTTCTCCCAAAGTGATAAACCGGACAGTATCATGGACCGGTTTTCCCGGTAATCCGTATTTGCAAGGTTGGTTTCACT; site = the 11-nt target. The method in brief:
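IS621 bridge RNA target-binding loops were paired with targets in a pooled library tested in E. coli. After co-electroporation with a donor plasmid, cells were plated in two replicates on chloramphenicol/ampicillin LB agar (control) and on chloramphenicol/ampicillin/kanamycin carrying 0.1 mM IPTG. Barcodes at recombinant junctions were counted as counts per million, averaged and control-corrected to give recombination efficiency. Values are log10(CPM+1).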
“GGACACCCTTGGGTTCTAACCTGTTGCCTAT [GGACACCCTAG_LTGcore_CT_RTGcore_AT] (site GGACACCCTAG) (LTG core: CT, RTG core: AT)”: the “recombinant barcode read abundance (log10)” value stood at 1.28.

As for “GGACACCCTTGGGTTCTAACCTGTTGCCTCG [GGACACCCTAG_LTGcore_CT_RTGcore_CG] (site GGACACCCTAG) (LTG core: CT, RTG core: CG)”, the “recombinant barcode read abundance (log10)” value stood at 0.306.

For “GGACACCCTTGGGTTCTAACCTGTTGCCTGA [GGACACCCTAG_LTGcore_CT_RTGcore_TC] (site GGACACCCTAG) (LTG core: CT, RTG core: TC)”, the “recombinant barcode read abundance (log10)” value stood at 1.89.

Regarding “GGACACCCTTGGGTTCTAACCTGTTGCCTGT [GGACACCCTAG_LTGcore_CT_RTGcore_AC] (site GGACACCCTAG) (LTG core: CT, RTG core: AC)”, the “recombinant barcode read abundance (log10)” value is 0.442.

As for “GGACACCGATGGGTTCTAACCTGTTGCCTAG [GGACACCCTAG_LTGcore_GA_RTGcore_CT] (site GGACACCCTAG) (LTG core: GA, RTG core: CT)”, the “recombinant barcode read abundance (log10)” value stood at 0.0895.

In the case of “GGACACCGGTGGGTTCTAACCTGTTGCCTAG [GGACACCCTAG_LTGcore_GG_RTGcore_CT] (site GGACACCCTAG) (LTG core: GG, RTG core: CT)”, the “recombinant barcode read abundance (log10)” value was 0.255.

For “GGCTCCCAATGGGTTCTAACCTGTTGCGGAG [GGCTCCCCTCC_LTGcore_AA_RTGcore_CT] (site GGCTCCCCTCC) (LTG core: AA, RTG core: CT)”, the “recombinant barcode read abundance (log10)” value is 0.

In the case of “GGCTCCCACTGGGTTCTAACCTGTTGCGGAG [GGCTCCCCTCC_LTGcore_AC_RTGcore_CT] (site GGCTCCCCTCC) (LTG core: AC, RTG core: CT)”, the “recombinant barcode read abundance (log10)” value turned out to be 0.149.

For “GGCTCCCACTGGGTTCTAACCTGTTGCGGGT [GGCTCCCCTCC_LTGcore_AC_RTGcore_AC] (site GGCTCCCCTCC) (LTG core: AC, RTG core: AC)”, the “recombinant barcode read abundance (log10)” value was determined as 0.143.

In the case of “GGCTCCCAGTGGGTTCTAACCTGTTGCGGAG [GGCTCCCCTCC_LTGcore_AG_RTGcore_CT] (site GGCTCCCCTCC) (LTG core: AG, RTG core: CT)”, the “recombinant barcode read abundance (log10)” value turned out to be 0.156.

Turning to “GGCTCCCCTTGGGTTCTAACCTGTTGCGGAA [GGCTCCCCTCC_LTGcore_CT_RTGcore_TT] (site GGCTCCCCTCC) (LTG core: CT, RTG core: TT)”, the “recombinant barcode read abundance (log10)” value turned out to be 0.164.

“GGCTCCCCTTGGGTTCTAACCTGTTGCGGCT [GGCTCCCCTCC_LTGcore_CT_RTGcore_AG] (site GGCTCCCCTCC) (LTG core: CT, RTG core: AG)”: the “recombinant barcode read abundance (log10)” value worked out at 0.0367.

Regarding “GGCTCCCGATGGGTTCTAACCTGTTGCGGAG [GGCTCCCCTCC_LTGcore_GA_RTGcore_CT] (site GGCTCCCCTCC) (LTG core: GA, RTG core: CT)”, the “recombinant barcode read abundance (log10)” value worked out at 0.104.

As for “GGCTCCCGATGGGTTCTAACCTGTTGCGGTC [GGCTCCCCTCC_LTGcore_GA_RTGcore_GA] (site GGCTCCCCTCC) (LTG core: GA, RTG core: GA)”, the “recombinant barcode read abundance (log10)” value is 0.109.

For “GGCTCCCTATGGGTTCTAACCTGTTGCGGTA [GGCTCCCCTCC_LTGcore_TA_RTGcore_TA] (site GGCTCCCCTCC) (LTG core: TA, RTG core: TA)”, the “recombinant barcode read abundance (log10)” value was determined as 0.201.

As for “GGCTCCCTCTGGGTTCTAACCTGTTGCGGAG [GGCTCCCCTCC_LTGcore_TC_RTGcore_CT] (site GGCTCCCCTCC) (LTG core: TC, RTG core: CT)”, the “recombinant barcode read abundance (log10)” value amounted to 0.172.

For “GGGAGCCATTGGGTTCTAACCTGTTGCTGAG [GGGAGCCCTCA_LTGcore_AT_RTGcore_CT] (site GGGAGCCCTCA) (LTG core: AT, RTG core: CT)”, the “recombinant barcode read abundance (log10)” value came out at 0.526.

For the sequence “GGGAGCCCGTGGGTTCTAACCTGTTGCTGAG [GGGAGCCCTCA_LTGcore_CG_RTGcore_CT] (site GGGAGCCCTCA) (LTG core: CG, RTG core: CT)”, the “recombinant barcode read abundance (log10)” value was 0.27.

On to “GGGAGCCCTTGGGTTCTAACCTGTTGCTGAG [GGGAGCCCTCA_LTGcore_CT_RTGcore_CT] (site GGGAGCCCTCA) (LTG core: CT, RTG core: CT)”, for which the “recombinant barcode read abundance (log10)” value stood at 1.87.

In the case of “GGGAGCCCTTGGGTTCTAACCTGTTGCTGCT [GGGAGCCCTCA_LTGcore_CT_RTGcore_AG] (site GGGAGCCCTCA) (LTG core: CT, RTG core: AG)”, the “recombinant barcode read abundance (log10)” value came to 0.652.

Take “GGGAGCCCTTGGGTTCTAACCTGTTGCTGGC [GGGAGCCCTCA_LTGcore_CT_RTGcore_GC] (site GGGAGCCCTCA) (LTG core: CT, RTG core: GC)”: the “recombinant barcode read abundance (log10)” value was 0.0756.

In the case of “GGGAGCCCTTGGGTTCTAACCTGTTGCTGGG [GGGAGCCCTCA_LTGcore_CT_RTGcore_CC] (site GGGAGCCCTCA) (LTG core: CT, RTG core: CC)”, the “recombinant barcode read abundance (log10)” value stood at 0.111.

Take “GGGAGCCCTTGGGTTCTAACCTGTTGCTGGT [GGGAGCCCTCA_LTGcore_CT_RTGcore_AC] (site GGGAGCCCTCA) (LTG core: CT, RTG core: AC)”: the “recombinant barcode read abundance (log10)” value stood at 0.208.

Turning to “GGGAGCCGATGGGTTCTAACCTGTTGCTGTC [GGGAGCCCTCA_LTGcore_GA_RTGcore_GA] (site GGGAGCCCTCA) (LTG core: GA, RTG core: GA)”, the “recombinant barcode read abundance (log10)” value was determined as 0.0745.

With “GGGAGCCTGTGGGTTCTAACCTGTTGCTGAG [GGGAGCCCTCA_LTGcore_TG_RTGcore_CT] (site GGGAGCCCTCA) (LTG core: TG, RTG core: CT)”, the “recombinant barcode read abundance (log10)” value is 0.259.

For the sequence “GGGAGCCTGTGGGTTCTAACCTGTTGCTGCA [GGGAGCCCTCA_LTGcore_TG_RTGcore_TG] (site GGGAGCCCTCA) (LTG core: TG, RTG core: TG)”, the “recombinant barcode read abundance (log10)” value stood at 0.285.

Regarding “GGGCGGAACTGGGTTCTAACCTGTTGCGGGT [GGGCGGACTCC_LTGcore_AC_RTGcore_AC] (site GGGCGGACTCC) (LTG core: AC, RTG core: AC)”, the “recombinant barcode read abundance (log10)” value came to 0.3.

With “GGGCGGAATTGGGTTCTAACCTGTTGCGGAG [GGGCGGACTCC_LTGcore_AT_RTGcore_CT] (site GGGCGGACTCC) (LTG core: AT, RTG core: CT)”, the “recombinant barcode read abundance (log10)” value amounted to 0.637.

Consider “GGGCGGACCTGGGTTCTAACCTGTTGCGGAG [GGGCGGACTCC_LTGcore_CC_RTGcore_CT] (site GGGCGGACTCC) (LTG core: CC, RTG core: CT)”, for which the “recombinant barcode read abundance (log10)” value was 1.4.

In the case of “GGGCGGACTTGGGTTCTAACCTGTTGCGGAC [GGGCGGACTCC_LTGcore_CT_RTGcore_GT] (site GGGCGGACTCC) (LTG core: CT, RTG core: GT)”, the “recombinant barcode read abundance (log10)” value was 0.135.

In the case of “GGGCGGACTTGGGTTCTAACCTGTTGCGGGA [GGGCGGACTCC_LTGcore_CT_RTGcore_TC] (site GGGCGGACTCC) (LTG core: CT, RTG core: TC)”, the “recombinant barcode read abundance (log10)” value is 1.29.

With “GGGCGGACTTGGGTTCTAACCTGTTGCGGTC [GGGCGGACTCC_LTGcore_CT_RTGcore_GA] (site GGGCGGACTCC) (LTG core: CT, RTG core: GA)”, the “recombinant barcode read abundance (log10)” value stood at 0.104.

On to “GGGCGTGCATGGGTTCTAACCTGTTGCCTAG [GGGCGTGCTAG_LTGcore_CA_RTGcore_CT] (site GGGCGTGCTAG) (LTG core: CA, RTG core: CT)”, for which the “recombinant barcode read abundance (log10)” value worked out at 0.233.

Regarding “GGGCGTGCCTGGGTTCTAACCTGTTGCCTAG [GGGCGTGCTAG_LTGcore_CC_RTGcore_CT] (site GGGCGTGCTAG) (LTG core: CC, RTG core: CT)”, the “recombinant barcode read abundance (log10)” value came to 0.255.

In the case of “GGGCGTGCTTGGGTTCTAACCTGTTGCCTCG [GGGCGTGCTAG_LTGcore_CT_RTGcore_CG] (site GGGCGTGCTAG) (LTG core: CT, RTG core: CG)”, the “recombinant barcode read abundance (log10)” value turned out to be 0.166.

Turning to “GGGCGTGCTTGGGTTCTAACCTGTTGCCTTA [GGGCGTGCTAG_LTGcore_CT_RTGcore_TA] (site GGGCGTGCTAG) (LTG core: CT, RTG core: TA)”, the “recombinant barcode read abundance (log10)” value is 0.139.

On to “GGGCGTGGATGGGTTCTAACCTGTTGCCTAG [GGGCGTGCTAG_LTGcore_GA_RTGcore_CT] (site GGGCGTGCTAG) (LTG core: GA, RTG core: CT)”, for which the “recombinant barcode read abundance (log10)” value was found to be 0.0898.

Take “GGGCGTGGCTGGGTTCTAACCTGTTGCCTAG [GGGCGTGCTAG_LTGcore_GC_RTGcore_CT] (site GGGCGTGCTAG) (LTG core: GC, RTG core: CT)”: the “recombinant barcode read abundance (log10)” value is 0.276.

Turning to “GGGCGTGTTTGGGTTCTAACCTGTTGCCTAG [GGGCGTGCTAG_LTGcore_TT_RTGcore_CT] (site GGGCGTGCTAG) (LTG core: TT, RTG core: CT)”, the “recombinant barcode read abundance (log10)” value amounted to 0.0908.

On to “GGTGCCCAATGGGTTCTAACCTGTTGCCGAG [GGTGCCCCTCG_LTGcore_AA_RTGcore_CT] (site GGTGCCCCTCG) (LTG core: AA, RTG core: CT)”, for which the “recombinant barcode read abundance (log10)” value was 0.135.

Regarding “GGTGCCCACTGGGTTCTAACCTGTTGCCGGT [GGTGCCCCTCG_LTGcore_AC_RTGcore_AC] (site GGTGCCCCTCG) (LTG core: AC, RTG core: AC)”, the “recombinant barcode read abundance (log10)” value is 0.066.

For “GGTGCCCAGTGGGTTCTAACCTGTTGCCGCT [GGTGCCCCTCG_LTGcore_AG_RTGcore_AG] (site GGTGCCCCTCG) (LTG core: AG, RTG core: AG)”, the “recombinant barcode read abundance (log10)” value came out at 0.102.

For “GGTGCCCCTTGGGTTCTAACCTGTTGCCGAT [GGTGCCCCTCG_LTGcore_CT_RTGcore_AT] (site GGTGCCCCTCG) (LTG core: CT, RTG core: AT)”, the “recombinant barcode read abundance (log10)” value came to 0.19.
